From paper PMC6556873, “Rapid Covalent-Probe Discovery by Electrophile-Fragment Screening” (Journal of the American Chemical Society, 2019)
Read-outs that look alike come from different tables or passages of the source.

Key:
[1] = in vitro; set-up: species or system CCD841, HEK293; details: human, hb2 cells, read-out: HB-2 Cells Viability (%)
[2] = target: T1, BSA (Bos taurus, UniProt P02769); set-up: Intact protein LC/MS covalent labelling, fragments in pools of five, 200 uM each, 4 °C; details: 24 h, 4 °C, pool of five; 200 µM; covalent
T1 construct: gene ALB

[3] = target: T2, PCAF (Homo sapiens, UniProt Q92831); set-up: Intact protein LC/MS covalent labelling, fragments in pools of five, 200 uM each, 4 °C; details: 24 h, 4 °C, pool of five; 200 µM; covalent
T2 construct: gene KAT2B

[4] = target: T3, NUDT7 (Homo sapiens, UniProt P0C024); set-up: Intact protein LC/MS covalent labelling, fragments in pools of five, 200 uM each, 4 °C; details: 24 h, 4 °C, pool of five; 200 µM; covalent
T3 construct: residues 14-235, E. coli, pNIC28-Bsa4, N-terminal His6 tag removed by TEV, construct 26672 Da

[5] = target: T4, OTUB2 (OTUB2A) (Homo sapiens, UniProt Q96DC9); set-up: Intact protein LC/MS covalent labelling, fragments in pools of five, 200 uM each, 4 °C; details: 24 h, 4 °C, pool of five; 200 µM; covalent
T4 construct: full length residues 1-234, E. coli BL21(DE3)-R3, His tag removed by TEV, construct 27312 Da
T4 sequence (Q96DC9 1-234): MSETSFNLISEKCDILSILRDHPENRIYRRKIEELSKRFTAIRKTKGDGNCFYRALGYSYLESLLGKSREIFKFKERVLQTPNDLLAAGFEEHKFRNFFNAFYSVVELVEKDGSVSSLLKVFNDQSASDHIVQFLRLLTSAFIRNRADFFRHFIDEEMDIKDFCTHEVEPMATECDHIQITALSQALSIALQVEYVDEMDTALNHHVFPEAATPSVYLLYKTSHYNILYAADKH

[6] = in vitro; set-up: species or system HB2, CCD841; details: human, hek293 cells
[7] = in vitro; set-up: species or system HB2, HEK293; details: human, ccd841 cells

T3 sequence (P0C024 14-235): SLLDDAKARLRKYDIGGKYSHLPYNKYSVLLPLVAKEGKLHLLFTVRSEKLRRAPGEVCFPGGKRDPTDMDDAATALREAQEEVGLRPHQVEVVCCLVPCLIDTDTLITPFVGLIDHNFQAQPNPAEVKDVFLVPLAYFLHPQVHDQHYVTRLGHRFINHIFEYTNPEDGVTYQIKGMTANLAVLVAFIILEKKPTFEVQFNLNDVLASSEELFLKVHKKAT
T1 sequence (P02769 whole entry, the tested form may be a part): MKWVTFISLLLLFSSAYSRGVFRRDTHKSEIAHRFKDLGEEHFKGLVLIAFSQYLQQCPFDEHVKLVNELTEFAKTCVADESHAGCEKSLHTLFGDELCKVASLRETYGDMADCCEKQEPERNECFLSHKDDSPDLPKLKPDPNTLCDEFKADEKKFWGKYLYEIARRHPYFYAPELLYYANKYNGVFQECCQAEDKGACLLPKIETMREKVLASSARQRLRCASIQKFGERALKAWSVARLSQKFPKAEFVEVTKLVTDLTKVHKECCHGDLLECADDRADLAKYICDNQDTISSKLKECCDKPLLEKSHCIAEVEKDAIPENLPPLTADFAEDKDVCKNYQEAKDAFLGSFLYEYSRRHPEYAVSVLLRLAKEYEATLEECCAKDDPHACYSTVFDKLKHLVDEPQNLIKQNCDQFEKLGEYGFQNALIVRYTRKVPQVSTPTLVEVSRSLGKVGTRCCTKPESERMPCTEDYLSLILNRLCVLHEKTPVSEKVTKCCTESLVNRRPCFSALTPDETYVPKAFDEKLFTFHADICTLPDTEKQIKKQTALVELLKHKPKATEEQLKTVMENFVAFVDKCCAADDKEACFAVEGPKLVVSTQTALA
T2 sequence (Q92831 whole entry, the tested form may be a part): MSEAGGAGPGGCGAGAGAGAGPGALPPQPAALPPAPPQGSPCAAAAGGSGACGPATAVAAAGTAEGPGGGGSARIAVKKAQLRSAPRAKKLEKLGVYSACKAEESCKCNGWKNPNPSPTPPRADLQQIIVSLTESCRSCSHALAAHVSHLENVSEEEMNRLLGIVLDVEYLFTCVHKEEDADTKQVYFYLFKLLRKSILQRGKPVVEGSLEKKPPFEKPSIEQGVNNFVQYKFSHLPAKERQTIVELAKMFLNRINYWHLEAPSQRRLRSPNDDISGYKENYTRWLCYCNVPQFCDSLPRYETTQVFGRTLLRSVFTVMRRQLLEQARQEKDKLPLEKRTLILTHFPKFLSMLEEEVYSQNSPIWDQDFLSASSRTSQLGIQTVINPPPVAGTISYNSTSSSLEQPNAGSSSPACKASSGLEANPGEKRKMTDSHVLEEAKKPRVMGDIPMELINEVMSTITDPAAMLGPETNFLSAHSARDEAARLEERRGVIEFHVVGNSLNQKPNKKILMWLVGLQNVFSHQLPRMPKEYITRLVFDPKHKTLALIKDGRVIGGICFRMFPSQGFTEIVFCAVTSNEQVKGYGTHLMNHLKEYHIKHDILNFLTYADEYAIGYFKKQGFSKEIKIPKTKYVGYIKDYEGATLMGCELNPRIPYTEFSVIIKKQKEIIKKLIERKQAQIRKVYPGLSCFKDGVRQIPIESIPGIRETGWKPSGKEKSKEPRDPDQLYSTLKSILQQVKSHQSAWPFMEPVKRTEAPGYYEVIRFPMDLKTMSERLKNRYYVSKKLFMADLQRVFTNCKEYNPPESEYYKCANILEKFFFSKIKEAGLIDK

Row | Structure (SMILES) | viability at 48 h, 10 µM [1] [%] | BSA [2] | PCAF [3] | NUDT7 [4] | OTUB2 [5] | viability at 48 h, 10 µM [6] [%] | viability at 48 h, 10 µM [7] [%]
1 | O=C(CCl)N1CCN(S(=O)(=O)c2c(F)cccc2F)CC1 [PCM-0102201] | 9.5 | 0 | 0 | 0 | 0 | 11.1 | 57.6
2 | O=C(CCl)N1CCN(c2ccccc2[N+](=O)[O-])CC1 [PCM-0103016] | 8.7 | 0.16 | 0 | 0.27 | 0.09 | 13.4 | 61.4
3 | CC(C)N(C)C(=O)C1CCN(C(=O)CCl)CC1 [PCM-0102974] | 86.7 | 0 | 0 | 0 | 0 | 79.8 | 84
4 | O=C(CCl)NNC(=O)C1COc2ccccc2O1 (stereo not shown) [PCM-0102384] | 86.6 | 0 | 0 | 0 | 0.27 | 90.7 | 70.3
5 | CC(NC(=O)CCl)c1ccccc1Cl (stereo not shown) [PCM-0102110] | 70.8 | 0 | 0 | 0 | 0.25 | 65.7 | 74.2
6 | O=C(CCl)N1CCN(C(=O)C2COc3ccccc3O2)CC1 (stereo not shown) [PCM-0102996] | 19.8 | 0 | 0 | 0 | 0.13 | 5.8 | 56.4
7 | O=C(CCl)NC1CCOCC1 [PCM-0103045] | 100 | 0 | 0 | 0 | 0 | 110 | 77.7
8 | N#CC(c1cccs1)N1CCN(C(=O)CCl)CC1 (stereo not shown) [PCM-0102223] | 74 | 0 | 0 | 0 | 0 | 64.6 | 75.5
9 | CCNC(=O)NC(=O)CCl [PCM-0102654] | 90.8 | 0 | 0 | 0 | 0 | 82.2 | 92.6
10 | N#Cc1c(NC(=O)CCl)sc2c1CCCCC2 [PCM-0102286] | 44.3 | 0 | 0 | 0.33 | 0 | 39.9 | 73.9
11 | O=C(CCl)NC1CCCCNC1=O (stereo not shown) [PCM-0102109] | 94.1 | 0 | 0 | 0 | 0 | 109 | 103
12 | O=C(CCl)N1CCN(c2ccc(Cl)cc2[N+](=O)[O-])CC1 [PCM-0102125] | 2.3 | 0 | 0 | 0.29 | 0 | 1.4 | 8.1
13 | Cc1ccccc1C(=O)NC1CCN(C(=O)CCl)CC1 [PCM-0103013] | 84.4 | 0.1 | 0 | 0 | 0 | 58.4 | 76.5
14 | Cc1ccc(-c2nnc(C)[nH]2)c(NC(=O)CCl)c1 [PCM-0102775] | 61.1 | 0 | 0 | 0.13 | 0 | 53 | 45
15 | CC(NC(=O)CCl)c1cccc(Cl)c1 (stereo not shown) [PCM-0102190] | 69.6 | 0 | 0 | 0.42 | 0.37 | 49.3 | 73.2
16 | O=C(CCl)Nc1ccccc1C(=O)O [PCM-0102307] | 105 | 0 | 0 | 0 | 0 | 78.8 | 96.5
